1 compound from patent EP0715850A1, “Use of proline and/or derivatives as an antihepatitis agent” (RESEARCH DEVELOPMENT CORPORATION OF JAPAN, priority 1994, dated 1996) can be followed below.

Each structure is given as a SMILES string. Read-outs that look alike come from different tables or passages of the source.

Experiment [1] relates to rats suffering galactosamine induced fulminant hepatitis. To be noted: blood sampled 36 hours after galactosamine; Pre-Pro and Post-Pro groups, proline 2.0 g/kg oral. On the procedure: The effect of administration of proline on transamylase activity in blood of rats suffering galactosamine induced fulminant hepatitis was investigated.
Blood was sampled from each of the four groups of rats (GalN, Control, Pre-Pro, and Post-Pro) of Example 1, upon the lapse of 36 hours after administration of galactosamine, and activity of transamylase in blood (glutamic-oxaloacetic acid transamylase: GOT; glutamic-pyruvic acid transamylase: GPT) was measured in accordance with the conventional method.

The subject of experiment [2] is LEC rat which spontaneously develops hepatitis, cirrhosis and hepatoma. Briefly: death rate and jaundice of LEC rats that spontaneously develop hepatitis. The experiment is classed as in vivo. An excerpt: An effect of proline was investigated by using LEC rat which spontaneously develops hepatitis, cirrhosis and hepatoma.
Weanlings of LEC rats (seven weeks of age: food deprived for one week before testing) were divided into 2 groups, and copper deficiency feed and normal feed were presented to the groups, respectively. The rats of 2 groups were further divided into 3 groups: group of free drinking of proline solution (0.2M of proline in distilled water); group of oral administration of proline solution (135-150 mg of proline/day); and group of free drinking of water. Death rate of 6 groups of rats were measured. A relationship between the amount of proline solution consumed by rats and the degree of jaundice of the rats was also measured.

Experiment [3] has as its system rats suffering galactosamine induced fulminant hepatitis. The following applies: ten days after galactosamine.
Method: Because of the similarity of pathological findings to those of human hepatitis and a large number of patients, experiments were carried out on the effect of administration of proline on the survival rate of rats suffering galactosamine induced fulminant hepatitis commonly used as a hepatitis model.
Fisher strain rats (male; eight weeks of age; body weight: 160 to 190 g) were divided into four groups each comprising nine rats. Rats of three groups were administered with 30% galactosamine hydrochloride-saline through intraperitoneal administration (1.4 g/kg body weight) to form fulminant hepatitis models (GalN), and only saline was administered to the remaining group to form a control group.
For 12 hours before and after administration of galactosamine, the rats were fasted, and from 12 hours prior to administration of galactosamine through six hours thereafter, the rats were caused to freely ingest 10% glucose aqueous solution.

For `O=C(O)[C@@H]1CCCN1` [Proline, proline], the “increase in the concentration of GOT in blood” value in experiment [1] is on record as “largely inhibited”. For the same compound, the “increase in the concentration of GPT in blood” value in experiment [1] is “largely inhibited”. In experiment [2] (LEC rats ingesting proline solution, Fig. 3), the degree of jaundice entry is listed as “diminished the jaundice”. Besides, the Death rate in experiment [2] (copper deficiency feed, free drinking of proline solution (0.2M in distilled water)) is recorded as 0%; in experiment [2] (copper deficiency feed, oral administration of proline solution (135-150 mg of proline/day)), 0%; in experiment [2] (normal feed, free drinking of proline solution (0.2M in distilled water)) it was 85%; in experiment [2] (normal feed, oral administration of proline solution (135-150 mg of proline/day)), 57%. Further, the survival rate in experiment [3] (post-administration (Post-Pro) group: proline 2.0 g/kg oral at 6, 12 and 24 hours after galactosamine (1.4 g/kg i.p.), 7/9) is recorded as 78%; in experiment [3] (pre-administration (Pre-Pro) group: proline 2.0 g/kg oral one hour prior to and 12 and 24 hours after galactosamine (1.4 g/kg i.p.), 9/9), 100%.
